How the values were obtained:
Assay in all cases: radiometric filter-binding kinase assay, Kinase HotSpot
Settings in all cases: compound 0.5 µM; ATP 10 µM
DYRK1B (human) = DYRK1B (human) (UniProt Q9Y463)
MATK (human) = MATK (human) (UniProt P42679)
ULK3 (human) = ULK3 (human) (UniProt Q6PHR2)
STK38 (human) = STK38 (human) (UniProt Q15208)
IRAK4 (human) = IRAK4 (human) (UniProt Q9NWZ3)
RPS6KA3 KD1 KD2 (human) = RPS6KA3 KD1 KD2 (human) (UniProt P51812)
TLK2 (human) = TLK2 (human) (UniProt Q86UE8)
PRKCI (human) = PRKCI (human) (UniProt P41743)
CSNK1E (human) = CSNK1E (human) (UniProt P49674)
EPHA6 (human) = EPHA6 (human) (UniProt Q9UF33)
CSK (human) = CSK (human) (UniProt P41240)
PAK7 (human) = PAK7 (human) (UniProt Q9P286)
MAPK9 (human) = MAPK9 (human) (UniProt P45984)
ABL1 (human) = ABL1 (human) (UniProt P00519)
MAPK12 (human) = MAPK12 (human) (UniProt P53778)
PKN2 (human) = PKN2 (human) (UniProt Q16513)
STK33 (human) = STK33 (human) (UniProt Q9BYT3)
RPS6KA2 KD1 KD2 (human) = RPS6KA2 KD1 KD2 (human) (UniProt Q15349)
JAK3 JH1 JH2 (human) = JAK3 JH1 JH2 (human) (UniProt P52333)
CAMK2D (human) = CAMK2D (human) (UniProt Q13557)
EPHB1 (human) = EPHB1 (human) (UniProt P54762)
RPS6KA4 KD2 (human) = RPS6KA4 KD2 (human) (UniProt O75676)
CDK5 CDK5R1 p25 (human) = CDK5 CDK5R1 p25 (human) (UniProt Q00535+Q15078)
MYO3B (human) = MYO3B (human) (UniProt Q8WXR4)
PBK (human) = PBK (human) (UniProt Q96KB5)
ULK1 (human) = ULK1 (human) (UniProt O75385)
OXSR1 (human) = OXSR1 (human) (UniProt O95747)
PRKX (human) = PRKX (human) (UniProt P51817)
CSNK2A2 (human) = CSNK2A2 (human) (UniProt P19784)
MAPK8 (human) = MAPK8 (human) (UniProt P45983)
SRPK1 (human) = SRPK1 (human) (UniProt Q96SB4)
TAOK2 (human) = TAOK2 (human) (UniProt Q9UL54)
CHUK (human) = CHUK (human) (UniProt O15111)
PRKCH (human) = PRKCH (human) (UniProt P24723)
PRKACG (human) = PRKACG (human) (UniProt P22612)
JAK2 JH1 JH2 (human) = JAK2 JH1 JH2 (human) (UniProt O60674)
PRKD2 (human) = PRKD2 (human) (UniProt Q9BZL6)
DYRK4 (human) = DYRK4 (human) (UniProt Q9NR20)
MAPK11 (human) = MAPK11 (human) (UniProt Q15759)
BRAF (human) = BRAF (human) (UniProt P15056)

Chain of PRKCI (human) (P41743 whole entry, looked up): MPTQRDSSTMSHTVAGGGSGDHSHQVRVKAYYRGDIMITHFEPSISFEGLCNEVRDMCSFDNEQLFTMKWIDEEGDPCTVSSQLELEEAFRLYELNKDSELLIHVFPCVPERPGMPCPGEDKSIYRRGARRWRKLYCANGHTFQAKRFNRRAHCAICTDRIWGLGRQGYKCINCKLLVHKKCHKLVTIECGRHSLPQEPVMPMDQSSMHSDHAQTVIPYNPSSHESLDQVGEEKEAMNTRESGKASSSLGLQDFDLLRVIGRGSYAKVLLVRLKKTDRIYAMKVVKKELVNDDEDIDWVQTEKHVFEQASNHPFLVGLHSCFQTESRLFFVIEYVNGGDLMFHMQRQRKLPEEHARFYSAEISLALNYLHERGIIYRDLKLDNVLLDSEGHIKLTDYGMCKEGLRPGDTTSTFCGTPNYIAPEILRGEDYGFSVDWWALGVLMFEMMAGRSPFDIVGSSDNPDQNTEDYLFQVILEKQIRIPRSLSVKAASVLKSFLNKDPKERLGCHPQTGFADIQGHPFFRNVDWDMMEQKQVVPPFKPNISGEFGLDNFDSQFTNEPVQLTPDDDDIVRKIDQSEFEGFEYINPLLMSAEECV
Chain of OXSR1 (human) (O95747 whole entry, looked up): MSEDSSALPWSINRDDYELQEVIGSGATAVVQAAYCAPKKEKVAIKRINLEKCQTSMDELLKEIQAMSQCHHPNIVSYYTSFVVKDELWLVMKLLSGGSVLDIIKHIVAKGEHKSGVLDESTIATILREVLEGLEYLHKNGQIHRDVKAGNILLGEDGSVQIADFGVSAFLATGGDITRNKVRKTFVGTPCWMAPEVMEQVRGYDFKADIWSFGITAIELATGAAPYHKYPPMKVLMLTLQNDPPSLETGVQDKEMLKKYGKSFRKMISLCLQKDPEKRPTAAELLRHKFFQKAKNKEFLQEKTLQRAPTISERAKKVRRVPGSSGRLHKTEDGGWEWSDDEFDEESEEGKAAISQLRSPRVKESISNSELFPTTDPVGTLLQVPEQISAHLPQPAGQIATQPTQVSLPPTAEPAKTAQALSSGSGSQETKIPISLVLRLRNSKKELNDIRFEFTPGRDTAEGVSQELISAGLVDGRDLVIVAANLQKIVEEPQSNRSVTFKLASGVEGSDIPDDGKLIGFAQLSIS
Chain of MAPK9 (human) (P45984 whole entry, looked up): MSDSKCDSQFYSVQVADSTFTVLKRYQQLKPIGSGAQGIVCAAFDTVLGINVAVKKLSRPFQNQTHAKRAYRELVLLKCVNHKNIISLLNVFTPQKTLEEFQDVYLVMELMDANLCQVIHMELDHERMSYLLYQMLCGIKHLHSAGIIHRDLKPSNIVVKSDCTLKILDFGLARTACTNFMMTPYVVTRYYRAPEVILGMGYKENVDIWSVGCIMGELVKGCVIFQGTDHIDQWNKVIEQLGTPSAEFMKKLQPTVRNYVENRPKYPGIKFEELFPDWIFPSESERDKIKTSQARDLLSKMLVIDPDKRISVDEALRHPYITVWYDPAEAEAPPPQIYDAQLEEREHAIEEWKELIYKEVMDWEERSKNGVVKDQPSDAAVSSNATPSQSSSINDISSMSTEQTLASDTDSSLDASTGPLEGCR
Chain of CSK (human) (P41240 whole entry, looked up): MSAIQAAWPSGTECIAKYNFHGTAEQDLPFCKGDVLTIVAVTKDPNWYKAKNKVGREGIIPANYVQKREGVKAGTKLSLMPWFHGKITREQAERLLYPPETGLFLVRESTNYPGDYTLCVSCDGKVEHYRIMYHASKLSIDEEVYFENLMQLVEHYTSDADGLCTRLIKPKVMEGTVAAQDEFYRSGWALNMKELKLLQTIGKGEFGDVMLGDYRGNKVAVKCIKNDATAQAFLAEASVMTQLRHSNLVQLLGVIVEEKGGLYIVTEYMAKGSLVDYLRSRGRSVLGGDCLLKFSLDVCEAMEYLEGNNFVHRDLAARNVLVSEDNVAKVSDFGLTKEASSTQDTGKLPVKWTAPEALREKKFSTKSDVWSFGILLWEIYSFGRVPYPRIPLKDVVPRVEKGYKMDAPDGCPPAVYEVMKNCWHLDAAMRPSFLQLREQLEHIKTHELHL
Chain of PRKX (human) (P51817 whole entry, looked up): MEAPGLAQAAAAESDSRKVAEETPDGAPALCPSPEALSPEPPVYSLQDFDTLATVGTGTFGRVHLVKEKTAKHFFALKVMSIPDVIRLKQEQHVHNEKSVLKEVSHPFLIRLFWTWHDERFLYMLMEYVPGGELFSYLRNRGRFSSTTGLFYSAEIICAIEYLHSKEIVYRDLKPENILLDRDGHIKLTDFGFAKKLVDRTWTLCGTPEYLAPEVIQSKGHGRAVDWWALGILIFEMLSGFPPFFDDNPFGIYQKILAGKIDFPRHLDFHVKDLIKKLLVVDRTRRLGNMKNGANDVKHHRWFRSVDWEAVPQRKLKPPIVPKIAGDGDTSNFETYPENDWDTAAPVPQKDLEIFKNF
Chain of STK33 (human) (Q9BYT3 whole entry, looked up): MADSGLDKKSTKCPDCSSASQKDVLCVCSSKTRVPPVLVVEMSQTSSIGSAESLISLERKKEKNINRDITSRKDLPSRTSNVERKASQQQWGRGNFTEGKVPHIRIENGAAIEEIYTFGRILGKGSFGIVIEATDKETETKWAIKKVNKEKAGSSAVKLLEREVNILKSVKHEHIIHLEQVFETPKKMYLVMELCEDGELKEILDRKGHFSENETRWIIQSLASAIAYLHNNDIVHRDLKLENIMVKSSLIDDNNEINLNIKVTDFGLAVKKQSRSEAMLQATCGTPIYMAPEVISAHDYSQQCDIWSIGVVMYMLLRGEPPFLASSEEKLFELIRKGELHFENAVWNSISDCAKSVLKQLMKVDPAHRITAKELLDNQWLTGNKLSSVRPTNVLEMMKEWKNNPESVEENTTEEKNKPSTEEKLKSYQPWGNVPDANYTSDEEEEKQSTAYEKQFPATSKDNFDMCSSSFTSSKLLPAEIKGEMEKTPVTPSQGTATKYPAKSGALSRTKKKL
Chain of PRKCH (human) (P24723 whole entry, looked up): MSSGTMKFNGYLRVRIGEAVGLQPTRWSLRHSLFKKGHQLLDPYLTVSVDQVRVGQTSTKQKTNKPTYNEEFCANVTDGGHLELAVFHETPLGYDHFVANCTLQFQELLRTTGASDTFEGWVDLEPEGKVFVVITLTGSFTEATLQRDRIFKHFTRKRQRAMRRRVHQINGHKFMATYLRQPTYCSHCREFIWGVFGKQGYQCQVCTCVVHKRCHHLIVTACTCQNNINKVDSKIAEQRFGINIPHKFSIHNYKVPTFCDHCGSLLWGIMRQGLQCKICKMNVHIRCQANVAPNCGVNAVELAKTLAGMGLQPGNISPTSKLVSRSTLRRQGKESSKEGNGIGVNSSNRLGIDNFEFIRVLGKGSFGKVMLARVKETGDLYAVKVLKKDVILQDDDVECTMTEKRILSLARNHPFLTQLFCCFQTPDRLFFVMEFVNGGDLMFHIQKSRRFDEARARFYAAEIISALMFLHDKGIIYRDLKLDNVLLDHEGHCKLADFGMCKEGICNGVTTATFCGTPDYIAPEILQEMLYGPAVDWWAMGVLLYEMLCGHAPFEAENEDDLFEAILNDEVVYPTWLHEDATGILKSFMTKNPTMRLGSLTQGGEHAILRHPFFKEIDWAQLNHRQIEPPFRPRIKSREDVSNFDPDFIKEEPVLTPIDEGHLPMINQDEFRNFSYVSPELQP
Chain of MATK (human) (P42679 whole entry, looked up): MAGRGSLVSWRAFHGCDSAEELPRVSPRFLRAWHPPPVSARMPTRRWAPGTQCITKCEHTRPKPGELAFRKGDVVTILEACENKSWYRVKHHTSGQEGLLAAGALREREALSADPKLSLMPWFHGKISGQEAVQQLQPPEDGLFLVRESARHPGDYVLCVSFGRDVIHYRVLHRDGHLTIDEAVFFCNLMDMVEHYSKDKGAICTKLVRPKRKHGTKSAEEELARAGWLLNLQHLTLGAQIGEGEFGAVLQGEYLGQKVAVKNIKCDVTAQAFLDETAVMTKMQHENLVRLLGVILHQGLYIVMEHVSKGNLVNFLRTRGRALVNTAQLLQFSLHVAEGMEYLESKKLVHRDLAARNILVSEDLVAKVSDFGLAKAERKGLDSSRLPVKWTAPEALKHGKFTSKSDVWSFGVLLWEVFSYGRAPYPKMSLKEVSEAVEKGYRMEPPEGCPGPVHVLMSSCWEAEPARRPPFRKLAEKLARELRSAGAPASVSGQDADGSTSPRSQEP
Chain of MAPK11 (human) (Q15759 whole entry, looked up): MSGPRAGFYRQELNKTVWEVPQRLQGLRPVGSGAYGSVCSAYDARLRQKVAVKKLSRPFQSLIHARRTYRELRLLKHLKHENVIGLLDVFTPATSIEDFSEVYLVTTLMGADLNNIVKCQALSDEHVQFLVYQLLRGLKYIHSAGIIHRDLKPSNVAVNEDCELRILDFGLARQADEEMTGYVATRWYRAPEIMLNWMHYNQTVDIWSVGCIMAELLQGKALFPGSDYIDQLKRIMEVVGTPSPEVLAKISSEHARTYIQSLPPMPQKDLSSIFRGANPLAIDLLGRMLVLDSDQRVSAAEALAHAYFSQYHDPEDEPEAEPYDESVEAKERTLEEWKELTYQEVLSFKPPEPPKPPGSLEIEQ
Chain of IRAK4 (human) (Q9NWZ3 whole entry, looked up): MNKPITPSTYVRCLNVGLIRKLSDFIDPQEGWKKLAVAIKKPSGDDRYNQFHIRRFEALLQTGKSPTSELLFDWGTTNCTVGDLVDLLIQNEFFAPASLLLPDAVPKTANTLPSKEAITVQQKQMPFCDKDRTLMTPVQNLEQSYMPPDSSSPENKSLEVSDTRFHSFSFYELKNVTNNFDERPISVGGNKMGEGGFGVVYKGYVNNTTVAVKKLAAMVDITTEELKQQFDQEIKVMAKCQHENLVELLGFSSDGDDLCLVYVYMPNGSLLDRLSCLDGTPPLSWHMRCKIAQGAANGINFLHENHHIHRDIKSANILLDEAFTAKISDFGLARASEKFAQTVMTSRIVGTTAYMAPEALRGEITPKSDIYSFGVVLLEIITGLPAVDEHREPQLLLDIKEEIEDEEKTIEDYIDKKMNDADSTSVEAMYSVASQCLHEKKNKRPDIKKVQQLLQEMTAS

Row | Compound | residual activity (DYRK1B (human)) | residual activity (MATK (human)) | residual activity (IRAK4 (human)) | residual activity (RPS6KA3 KD1 KD2 (human)) | residual activity (PRKCI (human)) | residual activity (CSNK1E (human)) | residual activity (CSK (human)) | residual activity (PAK7 (human)) | residual activity (MAPK9 (human)) | residual activity (ABL1 (human)) | residual activity (MAPK12 (human)) | residual activity (PKN2 (human)) | residual activity (STK33 (human)) | residual activity (RPS6KA2 KD1 KD2 (human)) | residual activity (JAK3 JH1 JH2 (human)) | residual activity (CAMK2D (human)) | residual activity (EPHB1 (human)) | residual activity (RPS6KA4 KD2 (human)) | residual activity (CDK5 CDK5R1 p25 (human)) | residual activity (PBK (human)) | also measured
1 | Cn1nc2c3c(cccc31)C(=O)c1ccccc1-2 | 93.1% | 88% | 97.3% | 97.3% | 98.5% | 34.3% | 88.7% | 102% | 85.2% | 99.1% | 93.8% | 97.3% | 81.3% | 93.5% | 107% | 90% | 94.6% | 105% | 92.2% | 108% | residual activity (ULK3 (human)): 94.9%; residual activity (STK38 (human)): 98.5%; residual activity (TLK2 (human)): 101%; residual activity (EPHA6 (human)): 87.6%; residual activity (MYO3B (human)): 97.7%; residual activity (ULK1 (human)): 101%; residual activity (OXSR1 (human)): 102%; residual activity (PRKX (human)): 101%; residual activity (CSNK2A2 (human)): 86.6%; residual activity (MAPK8 (human)): 87.2%; residual activity (SRPK1 (human)): 99.7%; residual activity (TAOK2 (human)): 104%; residual activity (CHUK (human)): 97%; residual activity (PRKCH (human)): 94.3%; residual activity (PRKACG (human)): 107%; residual activity (JAK2 JH1 JH2 (human)): 95.9%; residual activity (PRKD2 (human)): 77%; residual activity (DYRK4 (human)): 91.2%; residual activity (MAPK11 (human)): 109%
2 | CN([C@@H](Cc1ccc(OS(=O)(=O)c2cccc3cnccc23)cc1)C(=O)N1CCN(c2ccccc2)CC1)S(=O)(=O)c1cccc2cnccc12 | 101% | 94.8% | 92.1% | 98.6% | 93.8% | 103% | 96.2% | 103% | 85.6% | 100% | 92.2% | 98.6% | 97.3% | 102% | 98% | 92.8% | 94.2% | 98.7% | 93.5% | 99.2% | residual activity (ULK3 (human)): 98.6%; residual activity (STK38 (human)): 97.2%; residual activity (TLK2 (human)): 100%; residual activity (EPHA6 (human)): 94.9%; residual activity (MYO3B (human)): 88.5%; residual activity (ULK1 (human)): 101%; residual activity (OXSR1 (human)): 101%; residual activity (PRKX (human)): 109%; residual activity (CSNK2A2 (human)): 121%; residual activity (MAPK8 (human)): 94.6%; residual activity (SRPK1 (human)): 104%; residual activity (TAOK2 (human)): 98.3%; residual activity (CHUK (human)): 93.4%; residual activity (PRKCH (human)): 89.8%; residual activity (PRKACG (human)): 107%; residual activity (JAK2 JH1 JH2 (human)): 96.6%; residual activity (PRKD2 (human)): 100%; residual activity (DYRK4 (human)): 97.8%; residual activity (MAPK11 (human)): 98.9%
3 | O=C(Nc1cccc(Nc2cc(Nc3cccc(C(F)(F)F)c3)ncn2)c1)C1CC1 | 105% | 96.1% | 104% | 105% | 98.1% | 98.1% | 102% | 97.5% | 98.2% | 103% | 89.2% | 95.9% | 105% | 102% | 106% | 101% | 100% | 100% | 99.5% | 103% | residual activity (BRAF (human)): 96.8%; residual activity (ULK1 (human)): 100%; residual activity (OXSR1 (human)): 110%; residual activity (PRKX (human)): 107%; residual activity (CSNK2A2 (human)): 94.9%; residual activity (MAPK8 (human)): 93.4%; residual activity (SRPK1 (human)): 86.4%; residual activity (TAOK2 (human)): 103%; residual activity (CHUK (human)): 95.6%; residual activity (PRKCH (human)): 88.2%; residual activity (JAK2 JH1 JH2 (human)): 99.5%; residual activity (PRKD2 (human)): 103%; residual activity (DYRK4 (human)): 98%; residual activity (MAPK11 (human)): 97.2%
